Earlier results, collected in patent US20100130442A1, “Lung Injury Treatment” (priority 2007, published 2010).

What was measured:
[1] = system: lung injury induced by intratracheal LPS in C57BL/6 mice; conditions: spontaneously ventilating C57BL/6 mice
[2] = system: mechanical ventilation induced lung injury; conditions: in vivo

For `CCCCCCCCCCCCC/C=C/[C@@H](O)[C@@H](N)COP(=O)(O)O` [Sphingosine-1-Phosphate], the “lung injury induced by intratracheal LPS” value [1] is listed as “attenuates” and the “mechanical ventilation induced lung injury” value [2] is listed as “blocked”.
